{"source": "patent US10487329B2", "about": "“Methods and compositions for the treatment of head and neck cancer” (Children's Hospital Medical Center, priority 2015, dated 2019)", "key": {"IRAK1": {"target": "T1, IRAK1 (Homo sapiens, UniProt P51617)", "T1 construct": "endogenous in cells; host or cells: UMSCC1 and UMSCC47 cells", "T1 sequence (P51617 whole entry)": "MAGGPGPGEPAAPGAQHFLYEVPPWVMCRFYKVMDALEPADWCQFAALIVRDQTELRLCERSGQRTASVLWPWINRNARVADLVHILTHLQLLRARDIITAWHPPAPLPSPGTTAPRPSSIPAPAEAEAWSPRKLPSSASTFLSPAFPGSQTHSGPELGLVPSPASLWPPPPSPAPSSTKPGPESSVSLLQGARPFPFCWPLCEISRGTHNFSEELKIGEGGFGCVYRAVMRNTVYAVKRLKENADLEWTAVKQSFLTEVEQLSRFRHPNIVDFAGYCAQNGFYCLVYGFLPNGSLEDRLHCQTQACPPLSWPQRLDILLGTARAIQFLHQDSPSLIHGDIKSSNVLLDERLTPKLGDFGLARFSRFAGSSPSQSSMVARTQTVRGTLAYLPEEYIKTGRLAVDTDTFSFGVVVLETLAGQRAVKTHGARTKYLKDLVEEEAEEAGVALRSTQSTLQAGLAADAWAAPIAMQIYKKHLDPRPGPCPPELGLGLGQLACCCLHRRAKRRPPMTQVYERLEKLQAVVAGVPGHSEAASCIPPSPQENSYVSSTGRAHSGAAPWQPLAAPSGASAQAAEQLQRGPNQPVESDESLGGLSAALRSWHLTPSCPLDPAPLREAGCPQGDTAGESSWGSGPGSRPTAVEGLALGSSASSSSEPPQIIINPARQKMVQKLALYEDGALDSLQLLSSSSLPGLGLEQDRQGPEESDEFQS", "assay": "Western blot for IRAK1 activation (phospho-IRAK1 Thr209) in HNSCC cell lines", "assay_type": "cell-based", "details": "10 μM, 24-72 hours post-treatment, UMSCC1 and UMSCC47 cells", "description": "Western blotting. Whole cell lysates were harvested using Laemmli buffer and a total of 20 μg of protein was analyzed as described previously. Membranes were probed with DEK (1:1000, BD Biosciences, San Jose, Calif., USA), IRAK1 (1:1000, Santa Cruz Biotechnology, Dallas, Tex., USA (sc-7883)), TRAF6 (1:1000, Santa Cruz (sc-7221)), phospho-IRAK1 (Thr209, 1:800, Assay Biotechnology Company (A1074), Sunnyvale, Calif., USA), phospho-p38 (1:500, Cell Signaling Technologies (4361)), p38 (1:1000, Cell Signaling Technologies (9212)), phospho-ERK1/2 (1:1000, Cell Signaling Technologies (4377)), ERK1/2 (1:1000, Cell Signaling Technologies (4695)), phospho-IKKa/r3 (1:500, Cell Signaling Technologies (2697)), IKKa (1:1000, Cell Signaling Technologies (2682)), phospho-hcBa (1:500, Cell Signaling Technologies (9246)), hcBa (1:1000, Cell Signaling Technologies (4812)), a-tubulin-HRP (1:10,000 Cell Signaling Technologies (9099)), actin (1:10,000 a gift from James Lessard), and GAPDH (1:1000, Cell Signaling Technologies (5174)).\nIRAK1 inhibitor. […]\n(§1) Cells and media were collected 72 hours later and prepared and analyzed as above. For the time-course experiment, cells were plated and inhibitor was added the following day, with protein collected at 24, 48, and 72 hours and analyzed by western blot for IRAK1 inhibition."}, "UMSCC1 cells": {"test_system": "UMSCC1 cells", "assay": "Flow cytometry for cleaved caspase-3 (apoptosis), UMSCC1", "assay_type": "cell-based, human", "details": "UMSCC1, inhibitor vs DMSO, 72 hours, p<0.05", "description": "Flow cytometry for Cleaved Caspase-3. Lentivirally transduced cells were plated at equal densities and collected 48 hours later. Cells were fixed and prepped following the BD FITC Active Caspase-3 Apoptosis kit protocol (BD Biosciences). Adenovirally transduced cells were prepped with an Alexa-Fluor 647 conjugated cleaved-caspase 3 antibody to account for GFP-positivity (Cell Signaling Technologies (9602)). Analysis was performed on a BD FacsCanto and data analyzed on FlowJo software (Tree Star, Ashland, Oreg., USA). Experiments were performed 3 times with standard error of the mean (SEM) represented.\nIRAK1 inhibitor. UMSCC1 cells were plated at equal densities and IRAK1 inhibitor (IRAK-1/4 inhibitor, 15409, Sigma-Aldrich, St. Louis, Mo., USA) added the same day for caspase-3 flow cytometry experiments. DMSO was added in equal volume for a control.\nas §1"}, "melanoma cells": {"test_system": "melanoma cells", "details": "in vitro and in vivo, references [20, 24]; cited from earlier work"}, "IRAK1 and IRAK4": {"test_system": "IRAK1 and IRAK4", "details": "reference [24]; cited from earlier work"}, "MDS": {"test_system": "MDS", "details": "references [20, 24]; cited from earlier work"}}}
{"compound": "O=C(Nc1nc2ccccc2n1CCN1CCOCC1)c1cccc([N+](=O)[O-])c1", "note": "[IRAK-1/4 inhibitor, N-(2-morpholinylethyl)-2-(3-nitrobenzoylamido)-benzimidazole]", "values": [{"measurement": "activation of IRAK1 (phosphorylation of IRAK1)", "setting": "IRAK1", "value": "attenuated activation of IRAK1"}, {"measurement": "apoptosis (cleaved caspase-3)", "setting": "UMSCC1 cells", "value": "Significantly increased apoptosis"}, {"measurement": "apoptosis in melanoma cells", "setting": "melanoma cells", "value": "increase apoptosis"}, {"measurement": "kinase selectivity", "setting": "IRAK1 and IRAK4", "value": "selective for IRAK1 and IRAK4"}, {"measurement": "signaling and cell viability in MDS", "setting": "MDS", "value": "inhibit signaling and cell viability"}]}
